Reference: PubChem BioAssay (NCI)
Values joined by “and” are separate entries in the source; they are usually repeats but may differ in a detail not shown here. Equal entries are not always repeated.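 Five compound concentrations were applied to cells in 96-well plates for 48 hours; endpoints were derived by simple linear interpolation of the resulting dose-response curve. GI50: concentration for 50% inhibition of growth. TGI: concentration producing complete growth inhibition.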 Where a SMILES comes first, the peptide text is derived from it. [ ]: non-standard residue; d: D form. The star is where a group is joined. ξ: configuration not given here. dIva = CC[C@@](C)(N)C(=O)O; Aib = CC(C)(N)C(=O)O; ξP = O=C(O)C1CCCN1; βAla = NCCC(=O)O; X5 = OCN*

Legend:
Test in all cases: NCI anticancer screen, dose series, 48 h
786-0 renal = test system: 786-0 renal
COLO 205 colon = test system: COLO 205 colon
NCI/ADR-RES ovarian = test system: NCI/ADR-RES ovarian
OVCAR-4 ovarian = test system: OVCAR-4 ovarian
OVCAR-5 ovarian = test system: OVCAR-5 ovarian
OVCAR-8 ovarian = test system: OVCAR-8 ovarian
TK-10 renal = test system: TK-10 renal
UACC-257 melanoma = test system: UACC-257 melanoma
UACC-62 melanoma = test system: UACC-62 melanoma
UO-31 renal = test system: UO-31 renal

| Compound | GI50 (786-0 renal) [µM] | TGI (786-0 renal) [µM] | GI50 (COLO 205 colon) [µM] | TGI (COLO 205 colon) | GI50 (NCI/ADR-RES ovarian) [µM] | TGI (NCI/ADR-RES ovarian) [µM] | GI50 (OVCAR-4 ovarian) [µM] | TGI (OVCAR-4 ovarian) [µM] | GI50 (OVCAR-5 ovarian) [µM] | TGI (OVCAR-5 ovarian) [µM] | GI50 (OVCAR-8 ovarian) [µM] | TGI (OVCAR-8 ovarian) [µM] | GI50 (TK-10 renal) [µM] | TGI (TK-10 renal) [µM] | GI50 (UACC-257 melanoma) [µM] | TGI (UACC-257 melanoma) [µM] | GI50 (UACC-62 melanoma) [µM] | TGI (UACC-62 melanoma) [µM] | GI50 (UO-31 renal) [µM] | TGI (UO-31 renal) [µM] |
| --- | --- | --- | --- | --- | --- | --- | --- | --- | --- | --- | --- | --- | --- | --- | --- | --- | --- | --- | --- | --- |
| CC[C@@](C)(NC(=O)[C@H](C)NC(=O)CCNC(=O)C(C)(C)NC(=O)[C@H](C)NC(=O)[C@@H]1CCCN1C(=O)[C@@](C)(CC)NC(=O)[C@H](Cc1ccccc1)NC(=O)C1CCCN1C(=O)C(C)(C)NC(=O)C1CCCN1C(=O)C(C)(C)NC(C)=O)C(=O)NCCC(=O)N[C@@H](CC(C)C)C(=O)NC(C)(C)C(=O)NCCC(=O)N[C@@H](CC(C)C)C(=O)NC(C)(C)C(=O)NC(C)(C)C(=O)N[C@@H](CC(C)C)C(=O)NCCC(=O)NCO (stereo not given in full) (Ac-[Aib][ξP][Aib][ξP]F[dIva]PA[Aib][βAla]A[dIva][βAla]L[Aib][βAla]L[Aib][Aib]L[βAla]-X5) | 0.203 | 0.414 | 0.0681 | 0.248 µM | 0.238 | 0.488 | 0.132 | 0.346 | 0.197 | 0.422 | 0.119 | 0.359 | 0.153 | 0.353 | 0.0579 | 0.21 | 0.258 | 0.503 | 0.179 | 0.391 |
| CC1(C)N=C(N)N=C(N)N1c1ccc(CCC(=O)Nc2cccc(S(=O)(=O)F)c2)cc1 | 3.89 | > 100 | 41.1 | > 100 µM | > 100 | > 100 | > 100 | > 100 | > 100 | > 100 | 6.46 | > 100 | 5.57 | > 100 | 4.09 | > 100 | 5.3 | > 100 | 13.2 | > 100 |
| NS(=O)(=O)c1ccc(N=Nc2c(=O)[nH]c3ccc4[nH]cccc4c23)cc1 | 0.577 | > 25 | 0.376 | 0.913 µM | > 15.8 | > 25 | 0.409 | > 6.68 | 1.02 | > 25 | 0.342 | > 25 | 0.699 | 2.24 | 0.828 | 6.98 | 0.487 | 1.62 | 1.68 | > 25 |
| CCCC(CCC)C(=O)O | > 20000 | > 20000 | > 100 | > 100 µM and 10300 µM | > 100 | > 20000 | > 100 | > 20000 | > 20000 | > 20000 | > 100 | > 20000 | > 100 | > 20000 | > 100 | > 20000 | > 100 | > 20000 | > 100 | > 20000 |
| NCCNc1ncnc2ccc(Cl)cc12 | – | > 100 | – | > 100 µM | – | > 100 | – | > 100 | – | > 100 | – | > 100 | – | > 100 | – | > 100 | – | > 100 | – | > 100 |
